For twelve molecules, GI50 and TGI results are on record in PubChem BioAssay (NCI).

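Assay format: 96-well plates, 48-hour exposure. GI50 = concentration required for 50% inhibition of growth. The concentration for full growth arrest is given as TGI.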 Some results are limits rather than exact numbers.

Some test systems named below: HS 578T breast; OVCAR-4 ovarian; OVCAR-8 ovarian; KM12 colon; HCC-2998 colon; UACC-257 melanoma; IGROV1 ovarian; SF-539 CNS; UACC-62 melanoma.
Holding throughout (assay): inhibition of tumour cell growth, NCI panel, 48 h

Regarding `CCOCCOCCOCCOCCOCCOCCOCCOCCOCCO` (tested in a mixture with another compound), the GI50 in the assay on HS 578T breast was 1.81 µM; in the assay on OVCAR-4 ovarian, 717 nM; in the assay with OVCAR-8 ovarian, 871 nM; in the assay with KM12 colon, 1.2 µM; in the assay with HCC-2998 colon, 1.65 µM; with UACC-257 melanoma, 0.739 µM. For the same molecule, the GI50 with IGROV1 ovarian is 3190 nM. Besides, the TGI in the assay with HS 578T breast came to 9.59 µM; in the assay with OVCAR-4 ovarian, 2.84 µM; in the assay with OVCAR-8 ovarian, 4.36 µM; with KM12 colon, 4.67 µM; in the assay on HCC-2998 colon it was 6.25 µM; with UACC-257 melanoma it was 2.73 µM. In the assay with IGROV1 ovarian, this molecule gave a TGI of 15.8 µM.
Regarding `COc1cnccc1Nc1nc(-c2nn(Cc3c(F)cc(OCCO)cc3F)c3ccccc23)ncc1OC`, the GI50 with SF-539 CNS is 10.7 µM; in the assay with HS 578T breast, 9.08 µM; with OVCAR-4 ovarian, 1740 nM; in the assay with OVCAR-8 ovarian, 2030 nM; in the assay with KM12 colon, 3.88 µM; in the assay on HCC-2998 colon, 10 µM. The values for the GI50 with UACC-257 melanoma and in the assay on IGROV1 ovarian were 4.38 µM and 2890 nM, respectively. Besides, the TGI is 22.9 µM in the assay with SF-539 CNS; 26.3 µM in the assay on HS 578T breast; 3.68 µM with OVCAR-4 ovarian; 5.82 µM with OVCAR-8 ovarian; 63.6 µM in the assay on KM12 colon; greater than 100 µM in the assay with HCC-2998 colon. For the same molecule, the TGI came out at 17 µM in the assay on UACC-257 melanoma and 16.4 µM in the assay on IGROV1 ovarian.
Consider `CC(=O)C1C(=O)C(=O)N(CCN2C(=O)C(=O)C(C(C)=O)C2=O)C1=O` (stereo not drawn), for which the TGI with SF-539 CNS, in the assay on UACC-62 melanoma, with OVCAR-4 ovarian, in the assay on OVCAR-8 ovarian, in the assay on KM12 colon and in the assay with HCC-2998 colon was greater than 100 µM throughout. For the same molecule, the TGI with UACC-257 melanoma and with IGROV1 ovarian was greater than 100 µM each time.
`CCOC(=O)C1C(=O)CC(=O)C2CCCCC21` (stereo not drawn): the TGI in the assay on SF-539 CNS, in the assay with UACC-62 melanoma, with OVCAR-4 ovarian, with OVCAR-8 ovarian, in the assay on KM12 colon and with UACC-257 melanoma was greater than 100 µM in each case. In the assay with IGROV1 ovarian, this molecule came in with a TGI greater than 100 µM.
Take `CCN(CC)c1c(C)nnn1C1OC(COC(C)=O)C(OC(C)=O)C(OC(C)=O)C1OC(C)=O` (stereo not drawn): the TGI in the assay with SF-539 CNS, with UACC-62 melanoma, in the assay on OVCAR-4 ovarian, with OVCAR-8 ovarian, in the assay on KM12 colon and in the assay with HCC-2998 colon was greater than 100 µM throughout. In addition, the TGI in the assay with UACC-257 melanoma and in the assay with IGROV1 ovarian was greater than 100 µM each time.
With `CCc1c(C)c2cc(-n3c(-c4ccc(OC)cc4)csc3=N)c(O)c(C)c2oc1=O`, the GI50 with SF-539 CNS is 2.14 µM; in the assay on UACC-62 melanoma it was 1 µM; in the assay with HS 578T breast, 2.1 µM; in the assay on OVCAR-4 ovarian it was 1520 nM; in the assay on OVCAR-8 ovarian, 2240 nM; in the assay on KM12 colon, 1.32 µM. Besides, the GI50 is 3.09 µM in the assay on HCC-2998 colon, 3.15 µM in the assay on UACC-257 melanoma and 1080 nM in the assay with IGROV1 ovarian. The TGI was 7.25 µM in the assay on SF-539 CNS; 2.94 µM in the assay with UACC-62 melanoma; greater than 100 µM in the assay on HS 578T breast; 4.43 µM in the assay on OVCAR-4 ovarian; 8.28 µM in the assay on OVCAR-8 ovarian; 8.37 µM with KM12 colon. The TGI in the assay with HCC-2998 colon was found to be 10.2 µM; in the assay on UACC-257 melanoma, 14.2 µM; in the assay with IGROV1 ovarian, 5.25 µM.
Turning to `Cc1[nH]c2cc([N+](=O)[O-])ccc2c1[N+](=O)[O-]`, the TGI in the assay on SF-539 CNS is 57.1 µM; in the assay on OVCAR-4 ovarian, 92 µM; in the assay on OVCAR-8 ovarian, 79.8 µM; with KM12 colon, 67.6 µM; in the assay on HCC-2998 colon, 52.7 µM; in the assay on UACC-257 melanoma it was 43.9 µM. The same molecule came in with a TGI with IGROV1 ovarian greater than 100 µM.
As to `O=C1C=CC(=O)c2c1nc(CBr)[nH]c2=O`, the TGI in the assay on SF-539 CNS, with UACC-62 melanoma, in the assay with HS 578T breast, with OVCAR-4 ovarian, with OVCAR-8 ovarian and with KM12 colon was greater than 100 µM in each case. For the same molecule, the TGI in the assay on HCC-2998 colon, with UACC-257 melanoma and with IGROV1 ovarian was greater than 100 µM throughout.
For the molecule `N#Cc1ccc(C2SCc3nc4ccccc4n32)cc1` (stereo not drawn), the TGI in the assay with SF-539 CNS, with UACC-62 melanoma, in the assay on OVCAR-4 ovarian, in the assay with OVCAR-8 ovarian, in the assay with KM12 colon and in the assay with HCC-2998 colon was greater than 100 µM throughout. Besides, the TGI in the assay with UACC-257 melanoma and in the assay with IGROV1 ovarian was greater than 100 µM throughout.
On to `CCN(CC)C(=S)SS(C)(=O)=O`, for which the TGI was determined as 43.7 µM in the assay with SF-539 CNS; 30 µM with UACC-62 melanoma; 34.7 µM in the assay with OVCAR-4 ovarian; 39.4 µM in the assay with OVCAR-8 ovarian; 31.7 µM in the assay on KM12 colon; 52.3 µM in the assay with UACC-257 melanoma. The TGI in the assay with IGROV1 ovarian was greater than 100 µM.
Regarding `COC(=O)c1cc2cc(/C=C3/SC(=S)N(N(C(C)=O)C(C)=O)C3=O)oc2n1Cc1ccccc1`, the GI50 in the assay on SF-539 CNS is 20.4 µM; in the assay with UACC-62 melanoma, 14.4 µM; in the assay with HS 578T breast, 24.2 µM; with OVCAR-4 ovarian, 38200 nM; with OVCAR-8 ovarian, 18300 nM; in the assay with KM12 colon, 27.8 µM. Also, the GI50 in the assay with HCC-2998 colon is 17.3 µM; with UACC-257 melanoma it was 25 µM; with IGROV1 ovarian, 22400 nM. Further, the TGI was 39.3 µM in the assay on SF-539 CNS; 33 µM in the assay with UACC-62 melanoma; 76.6 µM in the assay on HS 578T breast; greater than 100 µM with OVCAR-4 ovarian; 42.8 µM in the assay on OVCAR-8 ovarian; greater than 100 µM in the assay with KM12 colon. Moreover, the TGI is 40.5 µM in the assay with HCC-2998 colon, 74.9 µM with UACC-257 melanoma and 57.3 µM in the assay with IGROV1 ovarian.
For the molecule `N#Cc1c(N)nc(N2CCOCC2)c(C#N)c1-c1c(Cl)cccc1Cl`, the GI50 in the assay on SF-539 CNS was 12.2 µM; with UACC-62 melanoma, 3.87 µM; in the assay with HS 578T breast, 5.07 µM; in the assay with OVCAR-4 ovarian it was 13100 nM; with OVCAR-8 ovarian, 14200 nM; in the assay on KM12 colon, 6.42 µM. Besides, the GI50 in the assay on HCC-2998 colon was 0.0181 µM; in the assay with UACC-257 melanoma it was 5.16 µM; with IGROV1 ovarian, 1980 nM. Besides, the TGI was 49.8 µM with SF-539 CNS; 19.7 µM in the assay on UACC-62 melanoma; 63.9 µM in the assay with HS 578T breast; greater than 100 µM in the assay with OVCAR-4 ovarian; 63.2 µM with OVCAR-8 ovarian; 77.8 µM in the assay with KM12 colon. In addition, the values for the TGI with HCC-2998 colon, in the assay with UACC-257 melanoma and in the assay on IGROV1 ovarian were 2.48 µM, 30.4 µM and 5.08 µM, respectively.
